Data taken from patent US11415579B2, “Assay for measuring a rate of reaction between a target and a ligand candidate” (Imperial College Innovations Ltd., priority 2016, dated 2022).
pKd: −log10 of the molar value.

What was measured:
Cdk2(R122C) (C177A) = target: T1, Cdk2(R122C) (C177A) (Homo sapiens, UniProt P24941, C177A/R122C); assay: Kinetic thiol consumption assay with Cdk2 mutant R122C; type: binding; set-up: key to Rate enhancement, Cdk2 R122C: rate constant with Cdk2 ÷ rate constant with model thiol (fold); details: additional mutation C177A; for Rate constant with Cdk2 R122C: Protein: Cdk2, cysteine position R122C, in h-1
T1 construct: poly-histidine; made in house; host or cells: E. coli
Procedure, shortened: (§1)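 Thiol consumption was monitored kinetically using 5 μM Cdk2 (C177A plus one introduced cysteine) in degassed phosphate buffer at pH 8 with TCEP beads. Plates were kept 1 h at room temperature before fluorescence reading, and rate constants came from exponential decay fitting.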

Cdk2(C177A, F80C) = target: T2, Cdk2(C177A, F80C) (Homo sapiens, UniProt P24941, C177A/F80C); assay: Kinetic thiol consumption assay with Cdk2 mutant F80C, incl. kobs versus concentration (Kd, k2); type: binding; set-up: key to Rate enhancement, Cdk2 F80C: Cdk2 rate constant divided by model-thiol rate constant; details: for Rate enhancement, Cdk2 F80C / Rate constant with Cdk2 F80C: additional mutation C177A; for Rate constant with Cdk2 F80C: Protein: Cdk2, cysteine position F80C, in h^-1
T2 construct: poly-histidine; made in house; host or cells: E. coli
Procedure, shortened: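 His-tagged Cdk2(C177A/F80C) from E. coli or model thiol, 5 μM in degassed phosphate buffer pH 8 with TCEP beads, reacted with acrylamide ligands; fluorescence (ex/em 380/470 nm) normalized to DMSO control and fitted to first-order decay for kobs. Kd and k2 obtained from hyperbolic fit of kobs versus ligand concentration.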

Cdk2(S181C) (C177A) = target: T3, Cdk2(S181C) (C177A) (Homo sapiens, UniProt P24941, C177A/S181C); assay: Kinetic thiol consumption assay with Cdk2 mutant S181C; type: binding; set-up: key to Rate enhancement, Cdk2 S181C: rate constant with Cdk2 ÷ rate constant with model thiol (fold); details: additional mutation C177A; for Rate constant with Cdk2 S181C: Protein: Cdk2, cysteine position S181C, in h^-1
T3 construct: poly-histidine; made in house; host or cells: E. coli
Procedure, shortened: as §1

Cdk2(T182C) (C177A) = target: T4, Cdk2(T182C) (C177A) (Homo sapiens, UniProt P24941, C177A/T182C); assay: Kinetic thiol consumption assay with Cdk2 mutant T182C; type: binding; set-up: key to Rate enhancement, Cdk2 T182C: rate constant with Cdk2 ÷ rate constant with model thiol (fold); details: additional mutation C177A; for Rate constant with Cdk2 T182C: Protein: Cdk2, cysteine position T182C, in h^-1
T4 construct: poly-histidine; made in house; host or cells: E. coli
Procedure, shortened: as §1

Cdk2(S276C) (C177A) = target: T5, Cdk2(S276C) (C177A) (Homo sapiens, UniProt P24941, C177A/S276C); assay: Kinetic thiol consumption assay with Cdk2 mutant S276C; type: binding; set-up: key to Rate enhancement, Cdk2 S276C: rate constant with Cdk2 ÷ rate constant with model thiol (fold); details: additional mutation C177A; for Rate constant with Cdk2 S276C: Protein: Cdk2, cysteine position S276C, in h^-1
T5 construct: poly-histidine; made in house; host or cells: E. coli
Procedure, shortened: as §1

[1] = Kinetic thiol consumption assay with model thiol glutathione; type: physicochemical; set-up: Rate constant with glutathione (k(GSH)): unit not given here; details: for Rate constant with glutathione (k(GSH)): 500 μM ligand, 5 μM thiol, phosphate buffer pH 8; for Rate constant with Glutathione: Protein: Glutathione, cysteine position NA, in h-1
Procedure, shortened: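 Rate constants for acrylamide reaction with 5 μM glutathione come from first-order exponential fits of normalized fluorescence decay (ex 380, em 470 nm). Reactions run in degassed phosphate buffer at pH 8 containing TCEP beads, room temperature.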

Cdk2(H71C) (C177A) = target: T6, Cdk2(H71C) (C177A) (Homo sapiens, UniProt P24941, C177A/H71C); assay: Kinetic thiol consumption assay with Cdk2 mutant H71C; type: binding; set-up: key to Rate enhancement, Cdk2 H71C: rate constant with Cdk2 ÷ rate constant with model thiol (fold); details: additional mutation C177A; for Rate constant with Cdk2 H71C: Protein: Cdk2, cysteine position H71C, in h^-1
T6 construct: poly-histidine; made in house; host or cells: E. coli
Procedure, shortened: as §1

Cdk2(N272C) (C177A) = target: T7, Cdk2(N272C) (C177A) (Homo sapiens, UniProt P24941, C177A/N272C); assay: Kinetic thiol consumption assay with Cdk2 mutant N272C; type: binding; set-up: key to Rate enhancement, Cdk2 N272: rate constant with Cdk2 ÷ rate constant with model thiol (fold); details: for Rate enhancement, Cdk2 N272: Cdk2 N272, additional mutation C177A; for Rate constant with Cdk2 N272C: Protein: Cdk2, cysteine position N272C, additional mutation C177A, in h^-1
T7 construct: poly-histidine; made in house; host or cells: E. coli
Procedure, shortened: as §1

[2] = target: T8, human cyclin-dependent kinase 2 (Cdk2) (Homo sapiens, UniProt P24941); assay: Kinetic thiol consumption assay with wild type Cdk2 (C177); type: binding; set-up: key to Rate enhancement, Cdk2 WT: k(Cdk2) divided by k(model thiol); Rate constant with Cdk2 (k(Cdk2)): unit not given here; details: for Rate constant with Cdk2 (k(Cdk2)): 500 μM ligand, 5 μM thiol, phosphate buffer pH 8; for Rate enhancement, Cdk2 WT: no additional mutations; for Rate constant with Cdk2 WT: Protein: Cdk2, cysteine position WT, in h^-1; for k(Cdk2)/k(Cdk2_mut) rate enhancement: model thiol Cdk2[C177A, F80C, K278C]; for k(Cdk2)/k(GSH) rate enhancement: model thiol glutathione
T8 construct: poly-histidine; made in house; host or cells: E. coli
Procedure, shortened: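 His-tagged human Cdk2 (single surface cysteine C177), expressed in E. coli, or a model thiol at 5 μM in degassed phosphate buffer pH 8 was pre-treated with immobilized TCEP beads (2% v/v) before acrylamide addition. Fluorescence (ex/em 380/470 nm) was read after 1 h at room temperature, normalized to DMSO/thiol-only control and plotted versus time.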

Cdk2[C177A, F80C, K278C] = target: T9, Cdk2[C177A, F80C, K278C] (Homo sapiens, UniProt P24941, C177A/F80C/K278C); assay: Kinetic thiol consumption assay with mutant Cdk2 as model thiol; type: binding; set-up: unit not given here; details: 500 μM ligand, 5 μM thiol, phosphate buffer pH 8
T9 construct: poly-histidine; made in house; host or cells: E. coli
Procedure, shortened: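 First-order rate constants were derived by exponential-decay fitting of DMSO/thiol-normalized fluorescence (380/470 nm) over time at room temperature. Thiol was 5 μM E. coli-expressed His-tagged Cdk2 mutant C177A/F80C/K278C in degassed pH 8 phosphate buffer containing 2% v/v TCEP beads.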

[3] = hyperbolic fit of kobs against ligand concentration

| SMILES | Rate enhancement, Cdk2 R122C (Cdk2(R122C) (C177A)) | Rate constant with Cdk2 R122C (Cdk2(R122C) (C177A)) | Rate enhancement, Cdk2 F80C (Cdk2(C177A, F80C)) | Rate enhancement, Cdk2 S181C (Cdk2(S181C) (C177A)) | Rate constant with Cdk2 S181C (Cdk2(S181C) (C177A)) | Rate enhancement, Cdk2 T182C (Cdk2(T182C) (C177A)) | Rate constant with Cdk2 T182C (Cdk2(T182C) (C177A)) | Rate enhancement, Cdk2 S276C (Cdk2(S276C) (C177A)) | Rate constant with Cdk2 S276C (Cdk2(S276C) (C177A)) | Rate constant with glutathione (k(GSH)) [1] | Rate constant with Glutathione [1] | Rate enhancement, Cdk2 H71C (Cdk2(H71C) (C177A)) | Rate enhancement, Cdk2 N272 (Cdk2(N272C) (C177A)) | Rate constant with Cdk2 N272C (Cdk2(N272C) (C177A)) | Rate constant with Cdk2 (k(Cdk2)) [2] | Rate enhancement, Cdk2 WT [2] | Rate constant with Cdk2 WT [2] | k(Cdk2)/k(Cdk2_mut) rate enhancement [2] | k(Cdk2)/k(GSH) rate enhancement [2] | Rate constant with Cdk2[C177A, F80C, K278C] (k(Cdk2_mut)) (Cdk2[C177A, F80C, K278C]) | further results |
| --- | --- | --- | --- | --- | --- | --- | --- | --- | --- | --- | --- | --- | --- | --- | --- | --- | --- | --- | --- | --- | --- |
| C=CC(=O)N1CCCc2sccc2C1 [CA-034] | 0.6416 | 0.01185 | 1.278 | 0.5858 | 0.01082 | 10.15 | 0.1874 | 2.718 | 0.0502 | 0.01354 | 0.01847 | 1.75 | 0.7223 | 0.01334 | 0.02784 | 1.053 | 0.01944 | 2.793 | 2.056 | 0.00997 | Rate constant with Cdk2 F80C (Cdk2(C177A, F80C)): 0.02361; Rate constant with Cdk2 H71C (Cdk2(H71C) (C177A)): 0.03232 |
| C=CC(=O)Nc1ccc(-c2ncccn2)cc1 [CA-037] | 0.9697 | 0.0147 | 63.59 | 1.495 | 0.02267 | 12.3 | 0.1865 | 1.763 | 0.02673 | 0.01523 | 0.01516 | 1.964 | 1.739 | 0.02636 | 0.05015 | 3.308 | 0.05015 | 0.2569 | 3.293 | 0.1952 | hit classification against Cdk2(F80C, C177A) (Cdk2(C177A, F80C)): hit ligands; Rate constant with Cdk2 F80C (Cdk2(C177A, F80C)): 0.964; kobs (Cdk2(C177A, F80C); [CA37] 0.02 mM): 0.00007107 min⁻¹; kobs (Cdk2(C177A, F80C); [CA37] 0.05 mM): 0.000271 min⁻¹; kobs (Cdk2(C177A, F80C); [CA37] 0.1 mM): 0.0006704 min⁻¹; kobs (Cdk2(C177A, F80C); [CA37] 0.2 mM): 0.001313 min⁻¹; kobs (Cdk2(C177A, F80C); [CA37] 0.35 mM): 0.002029 min⁻¹; kobs (Cdk2(C177A, F80C); [CA37] 0.5 mM): 0.002372 min⁻¹; kobs (Cdk2(C177A, F80C); [CA37] 1 mM): 0.004177 min⁻¹; kobs (Cdk2(C177A, F80C); [CA37] 2 mM): 0.005626 min⁻¹; pKd (Cdk2(C177A, F80C); [3]): 2.92; k2 (Cdk2(C177A, F80C); [3]): 0.009427 min⁻¹; Rate constant with Cdk2 H71C (Cdk2(H71C) (C177A)): 0.02977 |
| C=CC(=O)NCC1CN(C2CC2)CCO1 (stereo not drawn) [CA-038] | 0.3691 | 0.004175 | 0 | 0.4715 | 0.005333 | 1.744 | 0.01973 | 0.5828 | 0.006591 | 0.0065 | 0.01131 | 0.8254 | 0.592 | 0.006696 | 0.00332 | 0.5218 | 0.005901 | 0.9623 | 0.5101 | 0.00345 | Rate constant with Cdk2 H71C (Cdk2(H71C) (C177A)): 0.009335 |
| C=CC(=O)N1CCC2(CC1)CC2C(=O)OC (stereo not drawn) [CA-039] | 0.8889 | 0.001809 | 0 | 0.6334 | 0.001289 | 1.425 | 0.0029 | 1.14 | 0.002319 | 0.00141 | 0.002035 | 0 | 0.7499 | 0.001526 | 0.00187 | 0.2802 | 0.0005702 | 0.6155 | 1.327 | 0.00304 |  |
